Data taken from ChEMBL document CHEMBL4014283, “Structural insights of SmKDAC8 inhibitors: Targeting Schistosoma epigenetics through a combined structure-based 3D QSAR, in vitro and synthesis strategy” (Bioorg Med Chem, 2017).

Target: T1, Histone deacetylase 8 (Schistosoma mansoni) (UniProt A5H660)
T1 sequence (whole entry): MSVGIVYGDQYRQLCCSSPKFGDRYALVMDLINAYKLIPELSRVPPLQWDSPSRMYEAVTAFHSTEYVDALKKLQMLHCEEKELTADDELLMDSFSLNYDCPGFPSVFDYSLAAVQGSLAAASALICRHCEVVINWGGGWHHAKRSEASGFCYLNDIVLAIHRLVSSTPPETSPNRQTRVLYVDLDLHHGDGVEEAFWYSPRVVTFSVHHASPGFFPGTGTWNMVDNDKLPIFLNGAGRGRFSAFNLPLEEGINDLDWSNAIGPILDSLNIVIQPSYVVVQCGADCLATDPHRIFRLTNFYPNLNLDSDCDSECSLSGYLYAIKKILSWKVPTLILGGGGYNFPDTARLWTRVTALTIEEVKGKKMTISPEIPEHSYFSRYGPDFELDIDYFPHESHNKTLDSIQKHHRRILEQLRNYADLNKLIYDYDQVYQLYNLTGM
Experiment: Inhibition of Schistosoma mansoni KDAC8 at 30 uM using (FAM)-labeled peptide as substrate after 60 mins by microfluidic assay

Compound | inhibition [%]
CC(C)[C@@H]1NC(=O)[C@H]2CCCN2C(=O)[C@@H]2CCCN2C(=O)C[C@H](C(=O)NCCCS(C)(=O)=O)NC1=O | 0
CC(C)[C@@H]1NC(=O)[C@@H]2CCCN2C(=O)[C@H]2CCCN2C(=O)C[C@@H](C(=O)NCCSSCCN)NC1=O | 0
CSCCCNC(=O)[C@@H]1CC(=O)N2CCC[C@H]2C(=O)N2CCC[C@@H]2C(=O)N[C@@H](C(C)C)C(=O)N1 | 0
CC(C)[C@@H]1NC(=O)[C@@H]2CCCN2C(=O)[C@H]2CCCN2C(=O)C[C@@H](C(=O)NCCC[S+](C)[O-])NC1=O (some centres undefined) | 0
CC(C)[C@@H]1NC(=O)[C@H]2CCCN2C(=O)[C@@H]2CCCN2C(=O)C[C@H](C(=O)Cc2ccccc2)NC1=O | 0
CC(C)[C@@H]1NC(=O)[C@@H]2CCCN2C(=O)[C@H]2CCCN2C(=O)C[C@H](C(=O)NCCCS)NC1=O | 14.6
CC(C)[C@@H]1NC(=O)[C@H]2CCCN2C(=O)[C@@H]2CCCN2C(=O)C[C@@H](C(=O)OCc2ccccc2)NC1=O | 0
CC(C)[C@@H]1NC(=O)[C@H]2CCCN2C(=O)[C@@H]2CCCN2C(=O)C[C@H](C(=O)NCCC[S+](C)[O-])NC1=O (some centres undefined) | 0
COC(=O)CCCNC(=O)[C@H]1CC(=O)N2CCC[C@@H]2C(=O)N2CCC[C@H]2C(=O)N[C@@H](C(C)C)C(=O)N1 | 0
CC(C)[C@@H]1NC(=O)[C@@H]2CCCN2C(=O)[C@H]2CCCN2C(=O)C[C@@H](C(=O)NCCCC(=O)O)NC1=O | 0
CC(C)[C@@H]1NC(=O)[C@H]2CCCN2C(=O)[C@@H]2CCCN2C(=O)C[C@@H](C(=O)NCCC[S+](C)[O-])NC1=O (some centres undefined) | 0
CC(C)[C@@H]1NC(=O)[C@H]2CCCN2C(=O)[C@@H]2CCCN2C(=O)C[C@H](C(=O)NCCCSCCN)NC1=O | 0
CC(C)[C@@H]1NC(=O)[C@@H]2CCCN2C(=O)[C@H]2CCCN2C(=O)C[C@@H](C(=O)NCCCSSCCCNC(=O)[C@@H]2CC(=O)N3CCC[C@@H]3C(=O)N3CCC[C@H]3C(=O)N[C@@H](C(C)C)C(=O)N2)NC1=O | 0
O=C(O)CCCCN1C(=O)[C@H](CCC(=O)NC(c2ccccc2)(c2ccccc2)c2ccccc2)N=C(c2ccccc2)c2ccccc21 | 0
CC(C)[C@@H]1NC(=O)[C@H]2CCCN2C(=O)[C@@H]2CCCN2C(=O)C[C@@H](C(=O)NCCCSSCCCNC(=O)[C@@H]2CC(=O)N3CCC[C@H]3C(=O)N3CCC[C@@H]3C(=O)N[C@@H](C(C)C)C(=O)N2)NC1=O | 0
COC(=O)CCCNC(=O)[C@@H]1CC(=O)N2CCC[C@@H]2C(=O)N2CCC[C@H]2C(=O)N[C@@H](C(C)C)C(=O)N1 | 0
COC(=O)CCCNC(=O)[C@H]1CC(=O)N2CCC[C@H]2C(=O)N2CCC[C@@H]2C(=O)N[C@@H](C(C)C)C(=O)N1 | 1.47
CC(C)[C@@H]1NC(=O)[C@@H]2CCCN2C(=O)[C@H]2CCCN2C(=O)C[C@H](C(=O)NCCSSCCNC(=O)[C@H]2CC(=O)N3CCC[C@@H]3C(=O)N3CCC[C@H]3C(=O)N[C@@H](C(C)C)C(=O)N2)NC1=O | 0
CC(C)[C@@H]1NC(=O)[C@H]2CCCN2C(=O)[C@@H]2CCCN2C(=O)C[C@@H](C(=O)NCCS)NC1=O | 0
CC(C)[C@@H]1NC(=O)[C@@H]2CCCN2C(=O)[C@H]2CCCN2C(=O)C[C@@H](C(=O)NCCSSCCNP(=O)(Oc2ccccc2)Oc2ccccc2)NC1=O | 0

Compound | inhibition [%]
CC(C)[C@@H]1NC(=O)[C@@H]2CCCN2C(=O)[C@H]2CCCN2C(=O)C[C@H](C(=O)O)NC1=O | 0
CC(C)[C@@H]1NC(=O)[C@@H]2CCCN2C(=O)[C@H]2CCCN2C(=O)C[C@@H](C(=O)NCCCO)NC1=O | 0
CC(C)[C@@H]1NC(=O)[C@@H]2CCCN2C(=O)[C@H]2CCCN2C(=O)C[C@@H](C(=O)NCCSSCCNC(=O)[C@@H]2CC(=O)N3CCC[C@@H]3C(=O)N3CCC[C@H]3C(=O)N[C@@H](C(C)C)C(=O)N2)NC1=O | 0
CC(C)[C@@H]1NC(=O)[C@H]2CCCN2C(=O)[C@@H]2CCCN2C(=O)C[C@H](C(=O)NCCCO)NC1=O | 0
CC(C)[C@@H]1NC(=O)[C@@H]2CCCN2C(=O)[C@H]2CCCN2C(=O)C[C@H](C(=O)NCCS)NC1=O | 8.3
CC(C)[C@@H]1NC(=O)[C@@H]2CCCN2C(=O)[C@H]2CCCN2C(=O)C[C@@H](C(=O)NCCCS(C)(=O)=O)NC1=O | 0
CC(C)[C@@H]1NC(=O)[C@H]2CCCN2C(=O)[C@@H]2CCCN2C(=O)C[C@@H](C(=O)NCCCC(=O)O)NC1=O | 0
CC(C)[C@@H]1NC(=O)[C@H]2CCCN2C(=O)[C@@H]2CCCN2C(=O)C[C@@H](C(=O)NCCSSCCNC(=O)[C@@H]2CC(=O)N3CCC[C@H]3C(=O)N3CCC[C@@H]3C(=O)N[C@@H](C(C)C)C(=O)N2)NC1=O | 0
CC(C)[C@@H]1NC(=O)[C@H]2CCCN2C(=O)[C@@H]2CCCN2C(=O)C[C@@H](C(=O)O)NC1=O | 0
CC(C)[C@@H]1NC(=O)[C@H]2CCCN2C(=O)[C@@H]2CCCN2C(=O)C[C@H](C(=O)NCCCC(=O)O)NC1=O | 0
CC(C)[C@@H]1NC(=O)[C@H]2CCCN2C(=O)[C@@H]2CCCN2C(=O)C[C@H](C(=O)NCCCSSCCCNC(=O)[C@H]2CC(=O)N3CCC[C@H]3C(=O)N3CCC[C@@H]3C(=O)N[C@@H](C(C)C)C(=O)N2)NC1=O | 3.36
CC(C)[C@@H]1NC(=O)[C@@H]2CCCN2C(=O)[C@H]2CCCN2C(=O)C[C@@H](C(=O)NCCS)NC1=O | 0
CC(C)[C@@H]1NC(=O)[C@H]2CCCN2C(=O)[C@@H]2CCCN2C(=O)C[C@H](C(=O)NCCCS)NC1=O | 3.18
CC(C)[C@@H]1NC(=O)[C@@H]2CCCN2C(=O)[C@H]2CCCN2C(=O)C[C@H](C(=O)NCCCC(=O)NO)NC1=O | 25.8
CC(C)[C@@H]1NC(=O)[C@@H]2CCCN2C(=O)[C@H]2CCCN2C(=O)C[C@H](C(=O)NCCCN)NC1=O | 0
CC(C)[C@@H]1NC(=O)[C@@H]2CCCN2C(=O)[C@H]2CCCN2C(=O)C[C@@H](C(=O)O)NC1=O | 0
CC(C)[C@@H]1NC(=O)[C@@H]2CCCN2C(=O)[C@H]2CCCN2C(=O)C[C@@H](C(=O)OCc2ccccc2)NC1=O | 0
CC(C)[C@@H]1NC(=O)[C@@H]2CCCN2C(=O)[C@H]2CCCN2C(=O)C[C@H](C(=O)NCCCO)NC1=O | 0
CC(C)[C@@H]1NC(=O)[C@@H]2CCCN2C(=O)[C@H]2CCCN2C(=O)C[C@H](C(=O)NCCCS(C)(=O)=O)NC1=O | 0
CC(C)[C@@H]1NC(=O)[C@@H]2CCCN2C(=O)[C@H]2CCCN2C(=O)C[C@@H](C(=O)NCCCC(=O)NO)NC1=O | 21.2

Compound | inhibition [%]
CC(C)[C@@H]1NC(=O)[C@@H]2CCCN2C(=O)[C@H]2CCCN2C(=O)C[C@H](C(=O)NCCCC(=O)O)NC1=O | 0
CC(C)[C@@H]1NC(=O)[C@H]2CCCN2C(=O)[C@@H]2CCCN2C(=O)C[C@@H](C(=O)NCCCS)NC1=O | 1.45
CC(C)[C@@H]1NC(=O)[C@@H]2CCCN2C(=O)[C@H]2CCCN2C(=O)C[C@H](C(=O)OCc2ccccc2)NC1=O | 0
CC(C)[C@@H]1NC(=O)[C@H]2CCCN2C(=O)[C@@H]2CCCN2C(=O)C[C@H](C(=O)NCCS)NC1=O | 0
CC(C)[C@@H]1NC(=O)[C@H]2CCCN2C(=O)[C@@H]2CCCN2C(=O)C[C@@H](C(=O)NCCCS(C)(=O)=O)NC1=O | 0
CC(C)[C@@H]1NC(=O)[C@H]2CCCN2C(=O)[C@@H]2CCCN2C(=O)C[C@@H](C(=O)NCCCSCCN)NC1=O | 0
CC(C)[C@@H]1NC(=O)[C@H]2CCCN2C(=O)[C@@H]2CCCN2C(=O)C[C@H](C(=O)O)NC1=O | 0
COC(=O)CCCNC(=O)[C@@H]1CC(=O)N2CCC[C@H]2C(=O)N2CCC[C@@H]2C(=O)N[C@@H](C(C)C)C(=O)N1 | 0
CSCCCNC(=O)[C@@H]1CC(=O)N2CCC[C@@H]2C(=O)N2CCC[C@H]2C(=O)N[C@@H](C(C)C)C(=O)N1 | 0
CC(C)[C@@H]1NC(=O)[C@@H]2CCCN2C(=O)[C@H]2CCCN2C(=O)C[C@@H](C(=O)NCCCN)NC1=O | 0
CC(C)[C@@H]1NC(=O)[C@H]2CCCN2C(=O)[C@@H]2CCCN2C(=O)C[C@@H](C(=O)NCCCO)NC1=O | 0
CC(C)[C@@H]1NC(=O)[C@@H]2CCCN2C(=O)[C@H]2CCCN2C(=O)C[C@H](C(=O)NCCSSCCNP(=O)(Oc2ccccc2)Oc2ccccc2)NC1=O | 3
CC(C)[C@@H]1NC(=O)[C@@H]2CCCN2C(=O)[C@H]2CCCN2C(=O)C[C@@H](C(=O)NCCCS)NC1=O | 0.84
CC(C)[C@@H]1NC(=O)[C@H]2CCCN2C(=O)[C@@H]2CCCN2C(=O)C[C@H](C(=O)NCCSSCCNC(=O)[C@H]2CC(=O)N3CCC[C@H]3C(=O)N3CCC[C@@H]3C(=O)N[C@@H](C(C)C)C(=O)N2)NC1=O | 0
CC(C)[C@@H]1NC(=O)[C@@H]2CCCN2C(=O)[C@H]2CCCN2C(=O)C[C@H](C(=O)NCCCSSCCCNC(=O)[C@H]2CC(=O)N3CCC[C@@H]3C(=O)N3CCC[C@H]3C(=O)N[C@@H](C(C)C)C(=O)N2)NC1=O | 0
CC(C)[C@@H]1NC(=O)[C@@H]2CCCN2C(=O)[C@H]2CCCN2C(=O)C[C@H](C(=O)NCCC[S+](C)[O-])NC1=O (some centres undefined) | 0
CSCCCNC(=O)[C@H]1CC(=O)N2CCC[C@@H]2C(=O)N2CCC[C@H]2C(=O)N[C@@H](C(C)C)C(=O)N1 | 0
CC(C)[C@@H]1NC(=O)[C@@H]2CCCN2C(=O)[C@H]2CCCN2C(=O)C[C@H](C(=O)NCCSSCCN)NC1=O | 0
CSCCCNC(=O)[C@H]1CC(=O)N2CCC[C@H]2C(=O)N2CCC[C@@H]2C(=O)N[C@@H](C(C)C)C(=O)N1 | 0
